Measured values taken from article PMC12281475, “Mediator Kinase Inhibitor Selectivity and Activity in Colorectal Cancer” (ACS Chemical Biology, 2025).

Assays:
[1] = test system: MED14 phosphorylation in SW620 cells; test: CDK-substrate motif immunoprecipitation and MED14 immunoblot, SW620; format: cell-based, human; conditions: parent SW620, 350 nM, 6 h
Source text: 3 Mediator kinase knockout alters STAT1^SER727phosphorylation and promoter activity in SW620 human colon cancer cells. (A) Capillary immunoassay of Mediator kinase module expression and pSTAT1^SER727 biomarker in multiple independent knockout clones. GAPDH was included as a loading control. […] Controls included IgG alone for background, DMEM for untreated cells, and DMSO as a vehicle control. MED14 was detected as a doublet pair of bands by immunoblotting of cell lysates (middle gel panel). […] The lower panel includes vinculin as a loading control. (C) Promoter reporter results from CDK8 knockout clone 1 relative to parent SW620 cells. Data represent mean ± s.e.m (n = 3). The black horizontal line indicates unchanged reporter activity, while the horizontal red line highlights reporters with altered activity ±1.5-fold. […]
Cell monolayers were washed with PBS twice and lysed using a modified RIPA buffer, mRIPA (50 mM TRIS-HCl pH 7.4, 1% NP-40 substitute, 0.5% NaDOC, 150 mM NaCl, 1 mM EDTA, 0.02% SDS and 1:100 dilution of proteinase and phosphatase inhibitor cocktail, (#5872, Cell Signaling Technology) with overnight freezing at -80 °C and sonication of the cell pellet. Lysates were clarified by centrifugation and supernatants collected and protein concentration determined by a bicinchoninic acid (BCA) assay. […]

SW620 cells = test: Promoter reporter panel (transient luciferase constructs), SW620; format: cell-based, human; conditions: parent SW620, 350 nM, 6 h
Description: Transcription factor activity was assayed in cell lines using 45 different plasmid reporter constructs encoding firefly luciferase under the control of a basal promoter element downstream of specific transcriptional response elements (Qiagen, Germany; Supporting Table S1). Firefly luciferase under the control of basal promoter element alone was used to establish the baseline signal and cotransfection of a construct expressing renilla luciferase from a CMV-promoter was used as a transfection control. Cells were reverse-transfected with reporter plasmids, compounds were added 42 h post transfection and reporter activity quantified following 6 h continuous exposure. […]
multichannel pipette. Where indicated, spheroids were treated at day 4. At days 3, 6 and 8 following compound addition, 50% medium replenishment was performed. Cell-titre Glo analyses were carried out at day 14 for luminescence measurement on a Synergy 2 SL Luminescence microplate reader (BioTek, UK). Values are means ± […]
Single and double knockout clones of human SW620 colon cancer cells lacking CDK8, CDK19 or both kinases were generated using a CRISPR/Cas9 knockout strategy.
Constructs for knockout carried a Cas9 gene, a fluorescent protein gene (GFP for CDK8 and RFP for CDK19) and sgRNAs to human CDK8 […]
Single and double CDK8 and CDK19 knockout clones were generated by transiently transfecting SW620 cells using Lipofectamine 3000 (Thermo Fisher Scientific, UK).
Cells were harvested 72 hours post-transfection and the top 1% GFP, RFP or GFP/RFP positive cells were sorted by FACS into 96 well plates at one cell/well.
Knockout clones were identified by a capillary immunoassay for CDK8 or CDK19 […]
kinase mutant (CDK8D173A)2 were established by transfection of CDK8 CRISPR knockout clone 1 with a pCMV6-CDK8-cMyc-FLAG construct.
Transcription factor promoter reporter assays were carried out to define signalling pathways and biological processes modulated by CDK8/19 ligands. […]
and body weights recorded.

COLO205 cells = test: Promoter reporter panel (transient luciferase constructs), COLO205; format: cell-based, human; conditions: COLO205, 350 nM, 6 h
Description: Transcription factor promoter reporter assays were carried out to define signalling pathways and biological processes modulated by CDK8/19 ligands. A panel of plasmid reporter constructs encoding firefly luciferase under the control of a basal promoter element with specific transcriptional response elements were used (Qiagen, Germany;
Firefly luciferase under the control of the minimal promoter element (TATA box) alone was used to establish the base-line signal and a construct expressing renilla luciferase from a CMV-promoter was used as a transfection control. COLO205 human colon cancer cells or SW620 parental and CRISPR KO cells were reverse-transfected with the panel of plasmid reporters in a 96 well plate format. The reporter mixes were prepared at 40:1 ratio of fLUC to rLUC plasmid at a final concentration of
100 ng/ml. For each well 1 ul plasmid was complexed with 1 ul Lipofectamine 2000
(Thermo Fisher Scientific, UK) in 50 ul OptiMEM (Thermo Fisher Scientific, UK) media
for 20 mins at room temperature. Cells were trypsinised and 50 ul of cells at 2e5
cells/ml in supplemented DMEM were added to the 50 ul of plasmid:lipofectamine
mixture in OptiMEM in a well of a 96-well white opaque flat bottom microtiter plate.
fLUC and rLUC were measured by the addition of 100 ul dual glo luciferase reagent
(Promega, USA). Reporter activity was quantified in untreated cells 48 hours post- […]

[2] = test system: SW620 human solid tumor xenografts; test: Antitumor activity in SW620 tumor xenografts (parent and knockout clones); conditions: 42 mg/kg p.o. qd 5/7 days, 14-20 days
Description: Three separate clones were run for each knockdown condition (n = 7 control or treated mice per group for the parent and each individual clone). Tumors and plasma were collected 6 h after the final dose. For all graphs an ordinary one-way ANOVA with Dunnett’s correction was run to determine significance. […] Each point represents data from a knockout clone.
The establishment, treatment, pharmacokinetic analyses and processing of tumor samples from solid tumor xenografts was performed as described previously previously. , All procedures were performed in accordance with published NCRI guidelines and UK Government Home Office regulations.
The establishment, treatment, pharmacokinetic analysis and processing of tissue
samples from human tumour xenografts was performed as described previously.3,4 All
procedures were performed in accordance with published guidelines and UK
Government Home Office regulations.5 Female athymic nude mice Crl:NU-Foxn1nu
(Charles River Laboratories, US) were acclimatized for 1 week prior to use. Five million
SW620 human colorectal carcinoma cells were injected s.c. in the right flanks of 6–8
weeks old female NCr athymic mice under isofluorothane anesthesia. Therapy was
initiated when established tumours reached a mean volume of 60 mm (day 7). Animals
were randomly assigned into cohorts. Control mice received vehicle (0.5% Methocel,
at 42 mg/kg p.o qd for 5/7 days with a 2-day break after 1 week's dosing.
was prepared 24 h prior to administration to mice by weighing into a glass 30 mL
universal tube, and Methocel solution (0.5% Methocel, 0.25% Tween 20 in sterile
phosphate buffered saline) added to provide a final concentration of 3 mg/mL.
preparation was agitated at room temperature by magnetic stirrer to bring it into a fine
suspension before use. Animals were dosed orally by gavage every 24 h at 0.1 mL
per 10 g body weight. Tumours were measured three times weekly by Vernier calipers and body weights recorded. At the end of the study, day 3 for pharmacodynamic
biomarker analysis and day 14 for anti-tumour therapy experiments, animals were
culled 6 h after the final dose. Heparinized blood was collected by cardiac puncture,
spun, and the plasma snap frozen in liquid nitrogen for analysis of compound
exposure. Tumours were excised, weighed and samples snap frozen for compound

SMILES	MED14 upper band (immunoblot of cell lysates) [1]	p53 reporter activity (SW620 cells)	AARE promoter reporter activity relative to vehicle control (SW620 cells; mean ± s.e.m)	AP1 promoter reporter activity relative to vehicle control (SW620 cells; mean ± s.e.m)	reduction of activity of TCF/LEF, SP1 and PAX6 reporter constructs (COLO205 cells)	WNT-regulated TCF/LEF reporter construct activity (COLO205 cells; p adj < 0.001)	antitumor activity, treated/control (T/C) ([2]; CDK8/19 double knockout SW620 xenografts, p < 0.005)	antitumor activity, treated/control (T/C) ([2]; CDK8 knockout SW620 xenografts, ± s.e.m.)	antitumor activity, treated/control (T/C) ([2]; CDK19 knockout SW620 xenografts)	antitumor activity, treated/control (T/C) ([2]; parental SW620 xenografts)
Cn1cc(-c2ccc(-c3cncc(Cl)c3N3CCC4(CCNC4=O)CC3)cc2)cn1 [CCT251545]	reduced by active compound treatment	significant decrease	0.82 ± 0.06	0.78 ± 0.04	> 1.5 fold	most significant decrease				
Cn1ncc2cc(-c3cnc(N)c(Cl)c3N3CCC4(CCNC4=O)CC3)ccc21 [CCT251921]							113 ± 10%	59 ± 6%	66 ± 3%	63%
